This is an account of results in patent US11116760B2 (Gilead Sciences, Inc., priority 2018, dated 2021).

This test has as its target α4β7 integrin (Homo sapiens (Human), UniProt P13612+P26010). Briefly: α4β7 Integrin Cell Capture Assay. Type of test: cell-based.
Setting [1] is: Table 2, capture of α4β7 expressing RPM18866 cells on MadCAM-1 extracellular domain-coated plate.
[2] abbreviates: RPMI8866 cells captured on MadCAM-1 extracellular domain-coated plate.

Sequence of α4β7 integrin (P13612 34-1032): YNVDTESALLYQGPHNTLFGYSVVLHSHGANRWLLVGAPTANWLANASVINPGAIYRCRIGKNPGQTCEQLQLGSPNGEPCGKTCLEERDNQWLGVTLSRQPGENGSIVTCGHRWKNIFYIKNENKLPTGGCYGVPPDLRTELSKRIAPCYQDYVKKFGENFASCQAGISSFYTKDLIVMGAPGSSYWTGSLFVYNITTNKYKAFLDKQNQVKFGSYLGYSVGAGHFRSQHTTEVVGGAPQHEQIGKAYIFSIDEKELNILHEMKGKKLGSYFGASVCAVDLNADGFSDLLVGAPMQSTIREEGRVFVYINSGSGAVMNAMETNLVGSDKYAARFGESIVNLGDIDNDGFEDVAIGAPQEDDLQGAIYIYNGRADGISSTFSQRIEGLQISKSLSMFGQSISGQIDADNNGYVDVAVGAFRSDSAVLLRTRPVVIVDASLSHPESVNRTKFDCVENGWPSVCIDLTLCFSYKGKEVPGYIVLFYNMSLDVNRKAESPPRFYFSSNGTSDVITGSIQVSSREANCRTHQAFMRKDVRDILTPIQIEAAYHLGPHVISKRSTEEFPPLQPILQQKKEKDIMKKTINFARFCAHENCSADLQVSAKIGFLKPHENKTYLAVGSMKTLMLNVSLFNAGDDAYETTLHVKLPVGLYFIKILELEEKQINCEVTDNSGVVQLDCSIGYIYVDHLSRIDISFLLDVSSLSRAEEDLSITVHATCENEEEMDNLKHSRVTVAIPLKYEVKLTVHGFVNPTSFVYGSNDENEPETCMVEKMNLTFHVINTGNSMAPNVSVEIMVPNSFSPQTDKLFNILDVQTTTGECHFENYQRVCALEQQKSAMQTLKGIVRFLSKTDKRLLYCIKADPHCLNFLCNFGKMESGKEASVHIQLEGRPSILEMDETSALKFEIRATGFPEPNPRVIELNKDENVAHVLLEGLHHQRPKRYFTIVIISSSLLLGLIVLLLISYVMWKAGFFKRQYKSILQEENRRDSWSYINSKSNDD
Sequence of α4β7 integrin (P26010 20-798): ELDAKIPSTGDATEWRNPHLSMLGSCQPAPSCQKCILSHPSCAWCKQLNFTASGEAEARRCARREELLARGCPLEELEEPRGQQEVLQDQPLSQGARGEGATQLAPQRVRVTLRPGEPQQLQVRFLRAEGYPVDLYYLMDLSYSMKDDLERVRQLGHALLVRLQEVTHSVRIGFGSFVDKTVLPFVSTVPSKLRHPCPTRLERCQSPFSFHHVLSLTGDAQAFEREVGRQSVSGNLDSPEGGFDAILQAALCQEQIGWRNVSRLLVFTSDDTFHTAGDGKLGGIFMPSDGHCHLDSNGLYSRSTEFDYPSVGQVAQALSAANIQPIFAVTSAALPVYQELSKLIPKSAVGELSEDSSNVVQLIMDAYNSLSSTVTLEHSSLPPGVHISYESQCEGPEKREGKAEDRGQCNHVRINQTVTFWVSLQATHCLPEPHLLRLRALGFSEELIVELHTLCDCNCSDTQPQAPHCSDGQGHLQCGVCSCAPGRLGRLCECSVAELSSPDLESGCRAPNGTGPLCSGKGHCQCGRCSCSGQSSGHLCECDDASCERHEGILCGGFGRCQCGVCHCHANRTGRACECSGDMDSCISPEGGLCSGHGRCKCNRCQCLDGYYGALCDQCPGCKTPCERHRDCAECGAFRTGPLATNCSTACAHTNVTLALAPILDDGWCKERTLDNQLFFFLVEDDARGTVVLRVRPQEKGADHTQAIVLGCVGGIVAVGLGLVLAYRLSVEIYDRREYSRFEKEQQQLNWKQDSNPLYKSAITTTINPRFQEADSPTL

With `CC[C@@H](Nc1cc(F)c(C(=O)N[C@@H](Cc2ccc(-c3c(C(F)(F)F)ccc4cccnc34)c3ncccc23)C(=O)O)c(F)c1)C(F)(F)F` [Example 290], the EC50 under setting [1] is 6.5 nM. Same read-out and setting: next, `COc1ccc(C)nc1-c1ccc(C[C@H](NC(=O)c2c(F)cc(N3CCOC[C@H]3C(F)(F)F)cc2F)C(=O)O)c2cccnc12` [Example 291]: 6.9 nM.

Under setting [1], `N#Cc1cc(Cl)c(-c2ccc(C[C@H](NC(=O)c3c(F)cc(CS(=O)(=O)c4ccccc4)cc3F)C(=O)O)c3cccnc23)c(Cl)c1` [Example 293] came in with an EC50 of 6.9 nM. `CC[C@@H](Nc1cc(F)c(C(=O)N[C@@H](Cc2ccc(-c3nc(C)c(C)nc3C)c3ncccc23)C(=O)O)c(F)c1)C(F)(F)F` [Example 295]: the midpoint of the response under setting [1], the EC50, lay at 7.4 nM. On the same count and under the same terms, next, `CC[C@@H](Nc1cc(F)c(C(=O)N[C@@H](Cc2ccc(-c3cn(C)c(=O)cc3C(F)(F)F)c3ncccc23)C(=O)O)c(F)c1)C(F)(F)F` [Example 296]: 7.7 nM. Same read-out and setting: next, `CCOCc1cc(OC)c(-c2ccc(C[C@H](NC(=O)c3c(Cl)cc4[nH]c(Cc5ccccc5)cc4c3Cl)C(=O)O)c3cccnc23)c(OC)c1` [Example 297]: 7.9 nM; `Cc1cc(C(F)(F)F)c(-c2ccc(C[C@H](NC(=O)c3c(F)cc(N4CC[C@H]4C(F)(F)F)cc3F)C(=O)O)c3cccnc23)c(=O)n1C` [Example 298]: 7.9 nM. Turning to `O=C(N[C@@H](Cc1ccc(-c2ncc3c(n2)CCC3)c2ncccc12)C(=O)O)c1c(F)cc(N2CCOC[C@@H]2C(F)(F)F)cc1F` [Example 299], under setting [1], the EC50 came out at 8.2 nM.

Take `CC[C@@H](Nc1cc(F)c(C(=O)N[C@@H](Cc2ccc(-c3nccc(C)c3N(C)C)c3ncccc23)C(=O)O)c(F)c1)C(F)(F)F` [Example 300]: a half-maximal response under setting [1] (EC50) required 8.4 nM. The EC50 values of the last two molecules are within 1.5-fold of each other. On the same count and under the same terms, next, `Cc1nc(-c2ccc(C[C@H](NC(=O)c3c(F)cc(N4CCOC[C@@H]4C(F)(F)F)cc3F)C(=O)O)c3cccnc23)ncc1F` [Example 301]: 9.4 nM.

Take `O=C(N[C@@H](Cc1ccc(-c2ncc3ccccc3c2Br)c2ncccc12)C(=O)O)c1c(Cl)cccc1Cl` [Example 303]: the EC50 under setting [1] came out at 9.4 nM. Still for that read-out and setting: under `N#Cc1cc(Cl)c(-c2ccc(C[C@H](NC(=O)c3c(Cl)cccc3Cl)C(=O)O)c3cc(F)cnc23)c(Cl)c1` [Example 304] stands 9.6 nM; under `CC[C@@H](Nc1cc(F)c(C(=O)N[C@@H](Cc2ccc(-c3ncccc3C(C)C)c3ncccc23)C(=O)O)c(F)c1)C(F)(F)F` [Example 305], 10.2 nM; under `O=C(N[C@@H](Cc1ccc(-c2ccc3c4c(ccnc24)CCO3)c2ncccc12)C(=O)O)c1c(F)cccc1F` [Example 306], 11.2 nM. On the same count and under the same terms, under `CC[C@@H](Nc1cc(F)c(C(=O)N[C@@H](Cc2ccc(-c3nccc(C)c3C)c3ncccc23)C(=O)O)c(F)c1)C(F)(F)F` [Example 307] stands 11.4 nM; under `O=C(N[C@@H](Cc1ccc(-c2c(C(F)(F)F)cc3n(c2=O)CCC3)c2ncccc12)C(=O)O)c1c(Cl)cccc1Cl` [Example 308], 11.9 nM; under `CC[C@@H](Nc1cc(F)c(C(=O)N[C@@H](Cc2ccc(-c3ncc(C)cc3C(F)(F)F)c3ncccc23)C(=O)O)c(F)c1)C(F)(F)F` [Example 310], 12.3 nM. For the molecule `CC[C@@H](Nc1cc(F)c(C(=O)N[C@@H](Cc2ccc(-c3ncc4c(n3)CCC4)c3ncccc23)C(=O)O)c(F)c1)C(F)(F)F` [Example 311], a half-maximal effect under setting [1] (EC50) was put at 12.3 nM. On the same count and under the same terms, next, `CN1CCc2nc(-c3ccc(C[C@H](NC(=O)c4c(F)cc(N5CCOC[C@@H]5C(F)(F)F)cc4F)C(=O)O)c4cccnc34)ncc2C1` [Example 312]: 12.5 nM; `CC[C@@H](Nc1cc(F)c(C(=O)N[C@@H](Cc2ccc(-c3ncc(C)cc3N(C)C)c3ncccc23)C(=O)O)c(F)c1)C(F)(F)F` [Example 313]: 13.3 nM; `CC[C@@H](Nc1cc(F)c(C(=O)N[C@@H](Cc2ccc(-c3ncccc3N(C)C)c3ncccc23)C(=O)O)c(F)c1)C(F)(F)F` [Example 315]: 13.6 nM. Same read-out and setting: next, `O=C(N[C@@H](Cc1ccc(NC(=O)c2c(Cl)cncc2Cl)c2ncccc12)C(=O)O)c1c(F)cccc1F` [Example 316]: 13.7 nM; `N#Cc1ccc(-c2ccc(C[C@H](NC(=O)c3c(Cl)cc4cc[nH]c4c3Cl)C(=O)O)c3cccnc23)c(Cl)c1` [Example 317]: 13.8 nM; `Cc1nc(-c2ccc(C[C@H](NC(=O)c3c(F)cccc3F)C(=O)O)c3cccnc23)c(C(F)(F)F)c2ccccc12` [Example 318]: 14.3 nM. The same measure, in the same setting: next, `O=C(N[C@@H](Cc1ccc(-c2ncc3ccc(C4CC4)cc3c2C(F)(F)F)c2ncccc12)C(=O)O)c1c(Cl)cccc1Cl` [Example 319]: 14.4 nM.

As to `CC[C@@H](Nc1cc(F)c(C(=O)N[C@@H](Cc2ccc(-c3nc(C)nc(C)c3C)c3ncccc23)C(=O)O)c(F)c1)C(F)(F)F` [Example 320], the half-maximal effective concentration (EC50) under setting [1] amounted to 15.3 nM. The same measure, in the same setting: under `CC[C@@H](Nc1cc(F)c(C(=O)N[C@@H](Cc2ccc(-c3nc(C)ccc3Cl)c3ncccc23)C(=O)O)c(F)c1)C(F)(F)F` [Example 321] stands 15.8 nM. On the same count and under the same terms, under `CC(C)(O)[C@H](F)CNC(=O)c1cc(F)c(C(=O)N[C@@H](Cc2ccc(-c3ccc(C#N)cc3Cl)c3ncccc23)C(=O)O)c(F)c1` [Example 322] stands 16.2 nM; under `N#Cc1ccc(-c2ccc(C[C@H](NC(=O)c3c(Cl)cc4nc[nH]c4c3Cl)C(=O)O)c3cccnc23)c(Cl)c1` [Example 323], 17.1 nM. Still for that read-out and setting: next, `N#Cc1ccc(-c2ccc(C[C@H](NC(=O)c3c(F)cc(N[C@H](c4ccccc4)C(F)F)cc3F)C(=O)O)c3cccnc23)c(Cl)c1` [Example 324]: 18.7 nM; `CC[C@@H](Nc1cc(F)c(C(=O)N[C@@H](Cc2ccc(-c3nccc(C)c3Cl)c3ncccc23)C(=O)O)c(F)c1)C(F)(F)F` [Example 325]: 18.8 nM.

The molecule `N#Cc1ccc(-c2ccc(C[C@H](NC(=O)c3c(F)cc(NC(c4ccccc4)C(F)F)cc3F)C(=O)O)c3cccnc23)c(Cl)c1` (stereo partly shown) [Example 326] had a concentration for a half-maximal effect (EC50) under setting [1] of 19.1 nM. Still for that read-out and setting: under `CC[C@@H](Nc1cc(F)c(C(=O)N[C@@H](Cc2ccc(-c3ncc(C)cc3Cl)c3ncccc23)C(=O)O)c(F)c1)C(F)(F)F` [Example 327] stands 19.3 nM. The same measure, in the same setting: next, `CCOCc1cc(OC)c(-c2ccc(C[C@H](NC(=O)c3c(F)cc(NC(C)=O)cc3F)C(=O)O)c3cccnc23)c(OC)c1` [Example 329]: 20.1 nM.

`N#Cc1ccc(-c2ccc(C[C@H](NC(=O)c3c(F)cc(N[C@H](c4ccc(F)cc4)C(F)(F)F)cc3F)C(=O)O)c3cccnc23)c(Cl)c1` [Example 331] showed a concentration for a half-maximal effect (EC50) under setting [1] of 22.9 nM. The EC50 values of the last two molecules are within 1.5-fold of each other. With `N#Cc1ccc(-c2ccc(C[C@H](NC(=O)c3c(F)cc(NCC(F)(F)F)cc3F)C(=O)O)c3cccnc23)c(Cl)c1` [Example 332], under setting [1], the EC50 worked out at 23.7 nM. Under setting [1], `N#Cc1ccc(-c2ccc(C[C@H](NC(=O)c3c(F)cc(N[C@H](C4CCC4)C(F)(F)F)cc3F)C(=O)O)c3cccnc23)c(Cl)c1` [Example 333] yielded a concentration giving a half-maximal response (EC50) of 24.1 nM. Same read-out and setting: under `N#Cc1ccc(-c2ccc(C[C@H](NC(=O)c3c(F)cc(N[C@H](c4cccc(F)c4)C(F)(F)F)cc3F)C(=O)O)c3cccnc23)c(Cl)c1` [Example 334] stands 24.2 nM; under `CCOCc1cc(OC)c(-c2ccc(C[C@H](NC(=O)c3c(F)cc4[nH]c(Cc5ccccc5)cc4c3F)C(=O)O)c3cccnc23)c(OC)c1` [Example 335], 25.1 nM; under `O=C(N[C@@H](Cc1ccc(Nc2nccc3ccncc23)c2ncccc12)C(=O)O)c1c(Cl)cccc1Cl` [Example 336], 26.1 nM. `N#Cc1ccc(-c2ccc(C[C@H](NC(=O)c3c(F)cc(NC(=O)c4ccccc4C(F)(F)F)cc3F)C(=O)O)c3cccnc23)c(Cl)c1` [Example 337] yielded an EC50 under setting [1] of 26.2 nM.

As for `CCCN(c1cc(F)c(C(=O)N[C@@H](Cc2ccc(-c3c(C(F)(F)F)cc(C)n(C)c3=O)c3ncccc23)C(=O)O)c(F)c1)[C@H](CC)C(F)(F)F` [Example 339], the EC50 under setting [1] turned out to be 0.6 nM. `Cc1c(-c2ccc(C[C@H](NC(=O)c3c(F)cc(N[C@H](C)C(F)(F)F)cc3F)C(=O)O)c3cccnc23)c(=O)n(C)c(=O)n1C` [Example 340] came in with an EC50 under setting [1] of 0.6 nM. For `CC[C@@H](Nc1cc(F)c(C(=O)N[C@@H](Cc2ccc(-c3c(OC)cc(C)n(C)c3=O)c3ncccc23)C(=O)O)c(F)c1)C(F)(F)F` [Example 341], the concentration for a half-maximal effect (EC50) under setting [1] stood at 0.6 nM. Turning to `Cc1cc(C)n(C)c(=O)c1-c1ccc(C[C@H](NC(=O)c2c(F)cc(N[C@H](C3CC3)C(F)(F)F)cc2F)C(=O)O)c2cccnc12` [Example 342], the half-maximal effective concentration (EC50) under setting [1] amounted to 0.7 nM. Still for that read-out and setting: next, `CC[C@@H](Nc1cc(F)c(C(=O)N[C@@H](Cc2ccc(-c3c(Cl)cc(C)n(C)c3=O)c3ncccc23)C(=O)O)c(F)c1)C(F)(F)F` [Example 343]: 0.7 nM; `CC[C@@H](Nc1cc(F)c(C(=O)N[C@@H](Cc2ccc(-c3c(C)cc(C)n(C)c3=O)c3ncccc23)C(=O)O)c(F)c1)C(F)(F)F` [Example 345]: 0.8 nM. Under setting [2], `Cc1cc(N2CCOC[C@@H]2C(F)(F)F)cc(F)c1C(=O)N[C@@H](Cc1ccc(-n2c(=O)c3ccncc3n(C)c2=O)c2ncccc12)C(=O)O` [Example 356, (S)-2-(2-fluoro-6-methyl-4-((R)-3-(trifluoromethyl)morpholino)benzamido)-3-(8-(1-methyl-2,4-dioxo-1,4-dihydropyrido[3,4-d]pyrimidin-3(2H)-yl)quinolin-5-yl)propanoic acid] came in with an EC50 of 0.05 nM. This counts as picomolar. For the molecule `Cc1cc(N2CCOC[C@@H]2C(F)(F)F)cc(F)c1C(=O)N[C@@H](Cc1ccc(-n2c(=O)c3ncccc3n(C)c2=O)c2ncccc12)C(=O)O` [Example 399, (S)-2-(2-fluoro-6-methyl-4-((R)-3-(trifluoromethyl)morpholino)benzamido)-3-(8-(1-methyl-2,4-dioxo-1,4-dihydropyrido[3,2-d]pyrimidin-3(2H)-yl)quinolin-5-yl)propanoic acid], under setting [2], the response was half-maximal at 0.1 nM (EC50).
